The target of one assay is GSK3β (H350L) (Homo sapiens (Human), UniProt P49841). Kind of assay: biochemical. Particulars: GSK3β Ki (nM).
In assay [1] the target is CDK2/Cyclin E1 full length (Homo sapiens (Human), UniProt P24941). Kind of assay: CDK2/Cyclin E1 full length mobility shift assay. It counts as biochemical.

Chain of GSK3β (H350L) (P49841 whole entry, stated change not applied): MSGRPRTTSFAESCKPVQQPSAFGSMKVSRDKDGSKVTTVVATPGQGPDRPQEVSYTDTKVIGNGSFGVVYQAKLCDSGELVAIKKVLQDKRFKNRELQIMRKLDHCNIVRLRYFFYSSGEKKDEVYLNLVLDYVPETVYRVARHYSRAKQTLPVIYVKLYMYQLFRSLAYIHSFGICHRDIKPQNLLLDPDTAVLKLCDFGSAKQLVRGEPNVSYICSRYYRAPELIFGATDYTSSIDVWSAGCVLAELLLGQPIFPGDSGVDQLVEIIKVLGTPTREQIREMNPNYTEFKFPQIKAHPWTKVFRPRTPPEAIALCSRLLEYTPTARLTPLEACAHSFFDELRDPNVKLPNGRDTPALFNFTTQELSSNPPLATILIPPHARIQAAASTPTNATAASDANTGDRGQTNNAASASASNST
Method for GSK3β (H350L): The assay was initiated with the addition of ATP, following 15 minutes pre-incubation of enzyme and inhibitor at room temperature in the reaction mixture. The reaction was stopped after 30 minutes at room temperature by the addition of 50 μL of 80 mM EDTA.

In the case of `Cc1ncc(CC(=O)Nc2cc([C@H]3CC[C@@H](OC(=O)NC(C)CC(F)(F)F)C3)[nH]n2)s1` (single isomer, unassigned) [Example 79], the figures for the Ki (on GSK3β (H350L); in assay [1]) were 16.5 nM and 0.54 nM, respectively.
On to `Cc1ncc(CC(=O)Nc2cc([C@H]3CC[C@@H](OC(=O)NC(C)CC(F)(F)F)C3)[nH]n2)s1` (single isomer, unassigned) [Example 80], for which the Ki worked out at 8.85 nM at GSK3β (H350L) and 0.15 nM in assay [1].
The matching figures for `Cc1cnc(CC(=O)Nc2cc([C@H]3CC[C@@H](OC(=O)NC(C)CC(F)(F)F)C3)[nH]n2)o1` (single isomer, unassigned) [Example 81]: 32.9 nM and 1.48 nM.
The matching figures for `Cc1cnc(CC(=O)Nc2cc([C@H]3CC[C@@H](OC(=O)NC(C)CC(F)(F)F)C3)[nH]n2)o1` (single isomer, unassigned) [Example 82]: 12.6 nM and 0.19 nM.
In the same order, the values of `CC(CC(F)(F)F)NC(=O)O[C@@H]1CC[C@H](c2cc(NC(=O)Cc3cnco3)n[nH]2)C1` (single isomer, unassigned) [Example 83] are 33.3 nM and 0.69 nM.
Consider `CC(CC(F)(F)F)NC(=O)O[C@@H]1CC[C@H](c2cc(NC(=O)Cc3cnco3)n[nH]2)C1` (single isomer, unassigned) [Example 84], for which the inhibitory constant (Ki) was found to be 12 nM at GSK3β (H350L) and 0.1 nM in assay [1].
The matching figures for `CC(CC(F)(F)F)NC(=O)O[C@@H]1CC[C@H](c2cc(NC(=O)Cc3ccno3)n[nH]2)C1` (single isomer, unassigned) [Example 86]: 12.9 nM and 0.25 nM.
In the same order, the values of `CC(CC(F)(F)F)N(C)C(=O)O[C@@H]1CC[C@H](c2cc(NC(=O)Cc3ccno3)n[nH]2)C1` (single isomer, unassigned) [Example 90] are 2.36 nM and 0.23 nM.
In the case of `Cc1cnc(CC(=O)Nc2cc([C@H]3CC[C@@H](OC(=O)NC(C)CC(F)F)C3)[nH]n2)o1` (single isomer, unassigned) [Example 97], the Ki stood at 18 nM on GSK3β (H350L) and 0.39 nM in assay [1].
The matching figures for `COc1cc(CC(=O)Nc2cc([C@H]3CC[C@@H](OC(=O)NC(C)CC(F)F)C3)[nH]n2)ccn1` (single isomer, unassigned) [Example 98]: 21.6 nM and 0.33 nM.
As to `CC1(NC(=O)O[C@@H]2CC[C@H](c3cc(NC(=O)Cc4cc(F)cc(F)c4)n[nH]3)C2)CCOC1` (single isomer, unassigned) [Example 120], the Ki on GSK3β (H350L) stood at 34.9 nM; in assay [1] it was 0.09 nM.
In the same order, the values of `CC1(NC(=O)O[C@@H]2CC[C@H](c3cc(NC(=O)Cc4cc(F)cc(F)c4)n[nH]3)C2)CCOC1` (single isomer, unassigned) [Example 121] are 19.4 nM and 0.08 nM.
In the same order, the values of `COc1ccc(CC(=O)Nc2cc([C@H]3CC[C@@H](OC(=O)NC4(C)CCOC4)C3)[nH]n2)cn1` (single isomer, unassigned) [Example 122] are 12.7 nM and 0.22 nM.
On to `COc1ccc(CC(=O)Nc2cc([C@H]3CC[C@@H](OC(=O)NC4(C)CCOC4)C3)[nH]n2)cn1` (single isomer, unassigned) [Example 123], for which the inhibitory constant (Ki) is 8.87 nM on GSK3β (H350L) and 0.13 nM in assay [1].
In the same order, the values of `CC1(NC(=O)O[C@@H]2CC[C@H](c3cc(NC(=O)Cc4ccccc4)n[nH]3)C2)CCOC1` (single isomer, unassigned) [Example 124] are 80.7 nM and 0.19 nM.
The matching figures for `COc1ncc(CC(=O)Nc2cc([C@H]3CC[C@@H](OC(=O)NC4(C)CCOC4)C3)[nH]n2)s1` (single isomer, unassigned) [Example 126]: 26.6 nM and 0.27 nM.
The matching figures for `COc1ncc(CC(=O)Nc2cc([C@H]3CC[C@@H](OC(=O)NC4(C)CCOC4)C3)[nH]n2)s1` (single isomer, unassigned) [Example 127]: 20.1 nM and 0.23 nM.
Take `COc1ccc(CC(=O)Nc2cc([C@H]3CC[C@@H](OC(=O)N4CCC4C)C3)[nH]n2)cn1` (single isomer, unassigned) [Example 151]: the Ki on GSK3β (H350L) came to 3.89 nM; in assay [1], 0.15 nM.
In the same order, the values of `COc1cc(CC(=O)Nc2cc([C@H]3CC[C@@H](OC(=O)N4CCC4C)C3)[nH]n2)ccn1` (single isomer, unassigned) [Example 153] are 9.15 nM and 0.22 nM.
The matching figures for `COc1cc(CC(=O)Nc2cc([C@H]3CC[C@@H](OC(=O)N4C[C@@H](C#N)[C@@H]4C)C3)[nH]n2)ccn1` (single isomer, unassigned) [Example 155]: 1.63 nM and 0.13 nM.
Regarding `COc1ccc(CC(=O)Nc2cc([C@H]3CC[C@@H](OC(=O)N4C[C@@H](C#N)[C@@H]4C)C3)[nH]n2)cn1` (single isomer, unassigned) [Example 158], the figures for the inhibition constant (Ki) (on GSK3β (H350L); in assay [1]) were 0.78 nM and 0.17 nM, respectively.
For the compound `Cc1ncc(CC(=O)Nc2cc([C@H]3CC[C@@H](OC(=O)N4C[C@@H](C#N)[C@@H]4C)C3)[nH]n2)s1` (single isomer, unassigned) [Example 160], the values for the inhibition constant (Ki) (on GSK3β (H350L); in assay [1]) were 1.72 nM and 0.15 nM, respectively.
On to `C[C@H]1[C@H](C#N)CN1C(=O)O[C@@H]1CC[C@H](c2cc(NC(=O)Cc3ccccc3)n[nH]2)C1` (single isomer, unassigned) [Example 161], for which the results for the Ki (at GSK3β (H350L); in assay [1]) were 5.93 nM and 0.15 nM, respectively.
In the same order, the values of `COc1ccc(S(C)(=O)=O)c(CC(=O)Nc2cc([C@H]3CC[C@@H](OC(=O)NC(C)C(F)(F)F)C3)[nH]n2)c1` (single isomer, unassigned) [Example 291] are over 47.6 nM and 0.43 nM.
In the same order, the values of `C[C@H](F)[C@H](C)NC(=O)O[C@@H]1CC[C@H](c2cc(NC(=O)Cc3cnn(C)c3)n[nH]2)C1` (single isomer, unassigned) [Example 382, (1R,3S)-3-(3-{[(1-methyl-1H-pyrazol-4-yl)acetyl]amino}-1H-pyrazol-5-yl)cyclopentyl [(2S*,3S*)-3-fluorobutan-2-yl]carbamate] are 74.2 nM and 0.77 nM.
The matching figures for `COc1cc(CC(=O)Nc2cc([C@H]3CC[C@@H](OC(=O)N[C@@H](C)[C@H](C)F)C3)[nH]n2)ccn1` (single isomer, unassigned) [Example 385, (1R,3S)-3-(3-{[(2-methoxypyridin-4-yl)acetyl]amino}-1H-pyrazol-5-yl)cyclopentyl [(2S*,3S*)-3-fluorobutan-2-yl]carbamate]: 25.9 nM and 0.52 nM.
Regarding `CC(CC(F)F)NC(=O)O[C@@H]1CC[C@H](c2cc(NC(=O)Cc3cnn(C)c3)n[nH]2)C1` (single isomer, unassigned) [Example 386], the Ki stood at 45.9 nM at GSK3β (H350L) and 0.66 nM in assay [1].
Take `Cc1ccc(CC(=O)Nc2cc([C@H]3CC[C@@H](OC(=O)NC(C)C(C)(F)F)C3)[nH]n2)cn1` (single isomer, unassigned) [Example 388]: the values for the inhibitory constant (Ki) (at GSK3β (H350L); in assay [1]) were 36.9 nM and 2.34 nM, respectively.
The matching figures for `Cc1ccc(CC(=O)Nc2cc([C@H]3CC[C@@H](OC(=O)NC(C)C(C)(F)F)C3)[nH]n2)cn1` (single isomer, unassigned) [Example 389]: 18.3 nM and 0.83 nM.

By Ki is commonly meant the equilibrium dissociation constant of an inhibitor or competing ligand from its target.

(Values after patent US11014911B2, “CDK2 inhibitors” (Pfizer Inc., priority 2019, dated 2021).)
